Assay results taken from patent publication US7645735B2, “Anti-angiogenic peptides for treating or preventing endometriosis” (Children's Medical Center Corporation, priority 2003, dated 2010).
No end group written: not given here.

Assays:
LLC = assay: Lewis lung carcinoma (LLC) tumor model in C57Bl/6J mice; format: in vivo, mouse; settings: for tumor volume: LLC, s.c. twice a day 2.8 mg/kg/day, n=5 (FIG. 7); for inhibited LLC (tumor inhibition): peptides s.c. twice a day at 2.8 mg/kg/d, C57B1/6J mice
Description: Control mice were treated with PBS. In these experiments, LLC cells were implanted into the s.c. dorsa of C57B1/6J mice, and systemically treated. Peptides (mP1, mP2, mP5, and mP6) were injected (s.c.) twice a day at a dose of 2.8 mg/kg/d, whereas endostatin and PBS were administered once a day at a dose of 20 mg/kg/d.
(§1) BxPC-3 and LLC cells were grown in cell culture as described above. […] Mice were shaved and the dorsal skin was cleaned with ethanol before tumor cell injection. A suspension of 5×10^6 tumor cells in 0.1 ml RPMI-1640 (for BxPC-3) or DMEM (for LLC) was injected subcutaneously (s.c.) into the dorsa of mice at the proximal midline. BxPC-3 cells were implanted in SCID mice and LLC in C57B1/6J mice.
Animals with Lewis Lung carcinoma (600-800 mm^3 tumors) were euthanized, and the skin overlying the tumor was cleaned with Betadine and ethanol. Tumor tissue was excised under aseptic conditions. A suspension of tumor cells in 0.9% normal saline was made by passage of viable tumor tissue through a sieve and a series of sequentially smaller hypodermic needles of diameter 22- to 30-gauge. The final concentration was adjusted to 1×10^7 cells/ml, and the suspension was placed on ice. The injection of tumor cells was performed as described above.
(§2) The mice were weighed and tumors were measured every 3-5 days in two diameters with a dial-caliper. Volumes were determined using the formula a2×b×0.52 (where a is the shortest and b is the longest diameter). Data is represented as volume of treated tumor over control (T/C). At the completion of each experiment, the mice were euthanized with CO2 asphyxiation. Tumors were fixed in 10% buffered Formalin (Fisher Scientific, Fair Lawn, N.J.) and paraffin-embedded.
(§3) For treatment of tumor-bearing mice, tumor volumes were allowed to grow to approximately 100 mm^3, and mice were randomized. Treatment was performed by single bolus s.c. injections. Peptides were administered twice a day (every 12 hrs). Doses indicated for peptides were corrected for the purity of peptides (approximately 70%). For example, mice injected with 4 mg/kg/d peptide, were actually injected with 2.8 mg/kg/d after correction. The unpaired Student t-test was used for statistical analysis.

female C57BL/6 mice = assay: Estrus cycling by daily vaginal smears; format: in vivo, mouse; settings: larger experiment, 2.5 mg/kg
Text: To investigate the effect of the angiogenesis inhibitors used above on estrus cycling, mice from the first two studies underwent daily vaginal smears in the middle of the endometriosis experiment. The stage of the estrus cycle was classified by evaluating the cells present at the cytological staining. Briefly, this was done as follows. In order to synchronize estrus cycling prior to surgery, mice were housed in groups of 5 for a week. After endometriosis surgery, with the intention to prevent the suspension of cycling, all mice were housed in individual cages. In the absence of a male, female mice housed in groups may become anestrus. Starting post surgical week two, estrus cycling was evaluated by cytological analysis of daily vaginal smears over one week's period. Exams were performed each day during the early morning hours. Autoclaved, wetted, blunt toothpicks were used to gently scrape the superficial cell layer of the animal's vagina. Cells were transferred to a drop of Evan's blue in 0.9% saline on a glass slide for staining, sealed under a glass cover slip and examined under a microscope (Carl Zeiss, Thornwood, N.Y.). Subsequently, each slide was analyzed under low magnification (×40 to ×100) by two independent investigators, who were masked for the form of treatment and previous data from every mouse.

[1] = tested on: human microvascular endothelial cells (HMVECs); assay: VEGF-induced migration of HMVECs, modified Boyden chamber; format: cell-based
Description: Endostatin peptides were tested for anti-endothelial cell migration activity. Inhibition of VEGF-induced migration of human microvascular endothelial cells (HMVECs) was determined using several doses of endostatin peptides (FIG. 5). Human peptides were used because the cells were of human origin and the migration response of the HMVECs was assayed using a modified Boyden chamber. VEGF (5 ng/ml) was used a chemotactic agent and cells were challenged with human endostatin (Entremed; EM-ES), human Fc-Endostatin (nFcES), human P1 (hP1), human P2 (hP2), human P6 (hP6), and human P1-H1/3A (hP1-H1/3A). Total migration per membrane was quantified from the capture images using Scion Image Software (National Institutes of Health) and the unpaired Student T test was used for statistical analysis. […] No significant differences in inhibition between these concentrations were observed. At higher and lower concentrations less or no inhibition was observed. At 500 ng/ml of hP1 no inhibition was observed. Thus, similar to full-length endostatin, there is a U-shaped response to hP1 inhibition of EC migration.
The motility response of HMVEC-d cells was assayed using a modified Boyden chamber. Cells were plated in T75-cm2 flasks at 0.5×10^6 cells per flask and allowed to grow for 48 h (˜70% confluent) prior to the migration assay. To facilitate cell adhesion, the upper membrane of a transwell ([…]; Costar) was coated with fibronectin ([…]; Becton Dickinson, Bedford, Mass.) for 1 h at 37° C. Coated membranes were rinsed with PBS and allowed to air dry immediately before use. Cells were detached by trypsinization, treated with trypsinization neutralization solution (Clonetics), and resuspended at a final concentration of 1×10^6 cells/ml in serum-free endothelial basal medium (EBM; Clonetics) containing 0.1% BSA. Cells (200,000 in 0.2 ml) were then treated with 0.2 ml of EBM/BSA containing endostatin or peptides at the indicated concentrations. Cells were incubated for 20 min. at 37° C. with occasional shaking. Cells (50,000 in 100 μl) were added to the upper chamber of the transwell. EBM or EBM supplemented with VEGF (5 ng/ml) was added to the lower chamber and cells were allowed to migrate toward the bottom chamber for 4 h in a humidified incubator containing 5% CO2. Transwell filters were rinsed once with PBS and fixed and stained using a Diff-Quik staining kit (Baxter) following the manufacturer's protocol. Non-migrated cells were removed from the upper chamber with a cotton swab. Stained filters were cut out of the chamber and mounted onto slides using Permount (Fisher). The number of migrated cells was measured using microscopy (three fields from each membrane were captured using a 40× objective), and images were captured with a CCD camera using SPOT software. Total migration per membrane was quantified from the captured images using Scion Image software (National Institutes of Health). All experiments were run in triplicate. The unpaired Student t-test was used for statistical analysis.

[2] = tested on: human pancreatic tumor cells BxPC-3; assay: BxPC-3 human pancreatic tumor model in SCID mice; format: in vivo; settings: human endostatin peptides s.c. twice a day at 7 mg/kg/d, final measurement at 28 days, n=3
Description: These peptides were initially tested for anti-tumor activity employing the human pancreatic tumor cells BxPC-3 cells, which were implanted in the s.c. dorsa of SCID mice. For systemic treatment, human endostatin peptides, P1-P8, were administered subcutaneously (s.c.) twice a day at 7 mg/kg/d due to the high clearance rate from the mouse circulation. Full-length Fc-Endostatin, hFcES was administered subcutaneously only once per day at a dose of 20 mg/kg/d. PBS was used as a control.
as §1, §2, §3

Female SCID mice = settings: mouse, in vivo
Description: Female SCID mice were injected with human pancreatic tumor cells subcutaneously. When tumors reached a volume of approximately 100 mm^3 endostatin or placebo treatment was initiated and continued until the end of the study. After three days, females were mated.
Human BxPC-3 cells were grown in cells culture as described above. After washing with sterile PBS, cells were trypsinized and briefly re-suspended in RPMI 1640 medium containing 10% fetal calf serum (FCS) and 1% glutamine penicillin streptomycin (GPS) solution. After centrifuging, the cell concentration was adjusted to 50×10^6 cells/ml in additive-free RPMI 1640 medium and kept on ice. Female SCID mice were shaved on the dorsal side and the naked skin was cleaned with ethanol prior to injection. A suspension of 5×10^6 cells/ml in 100 μl was then injected subcutaneously into the dorsa of these mice at about one centimetre left of the midline.
Mice were weighed and tumors were measured every 7 days in two diameters using a dial-caliper. Tumor volumes were calculated using the formula a^2×b×0.52, while a being the shorter and b being the longer diameter. When tumors had reached a volume of approximately 100 mm^2 mice were divided into four groups.
During the first experiment, one group received endostatin (20 mg/kg; n=8) or vehicle (n=8) via subcutaneous osmotic pumps (Durect Corp., Cupertino, Calif.). Pumps were inserted via a small incision and placed into a subcutaneous pocket on the right lateral aspect of the animals' dorsa. The pumps were changed every week for a total of four weeks.
The other group received daily subcutaneous injections of endostatin (100 mg/kg, n=5) or vehicle (n=5) for the same period.
During a second study we repeated the experiment with endostatin in subcutaneous pumps. The other group in this series received the murine N-terminal fragment of endostatin (mP-1) at a dose of 2.5 mg/kg twice daily or PBS (n=5 each).
Three days after initiation of treatment female mice were added to a cage containing a male SCID mouse in a 1:1 ratio. All males had been housed separately three days prior to encountering the females and female bedding had been added to the male cages to enhance the males' libido.
For the following seven days every female was checked for a vaginal mucous plug as a sign of mating. These exams were performed during the early morning hours to optimize the results. Once a mucous plug had been noticed, mating was considered ‘successful’, and the female was not further examined in order to minimize iatrogenic stress.
Over the course of pregnancy the following parameters were assessed: ‘Mating Time’ describing the time between male encounter and the occurrence of a mucous plug; ‘Pregnancy Rate’, measured by ultrasound 15 days after the mucous plug was observed. The number of viable fetus was counted during this procedure; ‘Length of Pregnancy’, as measured from the time of successful mating to delivery; ‘Number of Total and Viable Litter’, counted on the day of birth; ‘Weight of Individual Pup’, by weighing the entire litter on the day of birth and calculating the mean weight.

C57B1/6J mice = assay: Corpus luteum formation in ovaries; format: in vivo, mouse; settings: after 4 weeks of treatment, compared to control animals
Text: The corpus luteum (CL) is the remnant of the graafian follicle after ovulation consisting mainly of connective tissue, granulosa and theca interna cells. The presence of Corpora lutea in an ovary is indicative of recent ovulation. We therefore examined the ovaries of mP-1 and vehicle treated mice for CL formation. After 4 weeks of treatment of C57B1/6J mice with induced endometriosis with mP-1, ovaries were removed, fixed in formalin and paraffin embedded. Ovaries from twelve, randomly chosen mice (three mice of both groups from the first two experiments) were sectioned (4-6 μm), and four consecutive sections were put on one slide. Every other slide was then stained with hematoxylin and eosin (H/E). The highest number of Corpora lutea per ovary on each slide was recorded, all numbers added and the mean number calculated.

[3] = tested on: vessel density (CD31) of LLC tumors; assay: Vessel density (CD31 staining) of LLC tumor sections; format: in vivo, mouse; settings: peptides 2.8 mg/kg/d s.c. twice a day
Description: To determine the effect on angiogenesis after mP1 treatment, LLC tumors treated with mP1, mP2, and endostatin at equimolar concentration were analyzed for vessel density (CD31). […] In each case, peptides were administered twice a day s.c. and LLC tumor sections from day 13 were formalin-fixed paraffin-embedded and then stained with CD31 (PECAM). FIG. 2C show the determination of vessel density and the Y axis is expressed as %CD31/high power field (hpf).
Tumors were fixed in 10% buffered Formalin overnight at 4° C. The next day, tumors were washed three times in PBS and paraffin-embedded. Sections (5 μm) were permeabilized with 40 μg/ml proteinase K (Roche Diagnostics Corp.) in 0.2 M Tris-HCl buffer (pH 7.6) for 25 minutes at 37° C. and washed with PBS. PECAM (1:250) was incubated at 4° C. overnight. Stainings were amplified using tyramide signal amplification direct and indirect kits (NEN Life Science Products Inc., Boston, Mass.). Sections were photographed at 400× magnification using a NIKON TE300 microscope. Vessel density (average of three fields) was determined by IPLab software. The unpaired Student t-test was used for statistical analysis.

Substance: HTHQDFQPVLHLVAL (listed as Mus musculus) [mP1-15]
- tumor volume (LLC): inhibit tumor volume

Substance: ATAQDFQPVLHLVALNTPLSGGMRGIR [mP1-H1/3A]
- arrest of the estrus cycle (female C57BL/6 mice): Neither mP-1, not the other two peptides, mP-6 and mP-1-H led to an arrest of the estrus cycle

Substance: HPAWPQKSVWHGSDPSGRRLMESY [mP6]
- arrest of the estrus cycle (female C57BL/6 mice): Neither mP-1, not the other two peptides, mP-6 and mP-1-H led to an arrest of the estrus cycle

Substance: HTHQDFQPVLHLVALNTPLS (listed as Mus musculus) [mP1-20]
- tumor volume (LLC): inhibit tumor volume

Substance: GSQGQVQPGARIFSFDGRDVLRHPA (listed as Mus musculus) [mP5]
- inhibited LLC (tumor inhibition) (LLC): No or insignificant activity

Substance: HSHRDFQPVLHLVALNSPLSGGMRG (listed as Homo sapiens) [hP1]
- inhibition of EC migration ([1]; 500 ng/ml, VEGF 5 ng/ml): no inhibition
- inhibition of EC migration ([1]; 100, 62.5, and 25 ng/ml, VEGF 5 ng/ml): best inhibition
- inhibited BxPC-3 (tumor inhibition) [2]: 39%

Substance: HPTWPQKSVWHGSDPNGRRLTESY (listed as Homo sapiens) [hP6]
- inhibition of EC migration ([1]; 200 and 100 ng/ml, VEGF 5 ng/ml): only inhibited at doses of 100 and 200 ng/ml
- inhibition of EC migration ([1]; concentrations lower than 100 ng/ml): no inhibition

Substance: GSEGPLKPGARIFSFDGKDVLRHPT (listed as Homo sapiens) [hP5]
- inhibited BxPC-3 (tumor inhibition) [2]: 29%

Substance: HTHQDFQPVLHLVALNTPLSGGMRGIR [mP1]
- effect on the offspring (Female SCID mice): did not see any negative effect on the offspring
- length of pregnancy (Female SCID mice): 20 days
- litter size per delivery (Female SCID mice): 7.4±1.3
- mean weight of pups on the day of delivery (Female SCID mice): 1.29 g
- pregnancy rate with live births (Female SCID mice): All mice receiving mP-1 became pregnant
- arrest of the estrus cycle (female C57BL/6 mice): Neither mP-1, not the other two peptides, mP-6 and mP-1-H led to an arrest of the estrus cycle
- mean number of Corpora lutea in ovaries (C57B1/6J mice): did not reduce the mean number of Corpora lutea

Substance: MRGIRGA DFQAFQQARA VGLSGTFR (MRGIRGADFQAFQQARAVGLSGTFR; listed as Mus musculus) [mP2]
- reduction of vessel density (%CD31/hpf) [3]: no effect
- LLC tumor formation (LLC; higher concentration 14 mg/kg/d): could inhibit LLC tumor formation as well as mP1 at 2.8 mg/kg/d
- inhibited LLC (tumor inhibition) (LLC): No or insignificant activity

Substance: TFRAFLSSRLQDLYSIVRRADRAAV (listed as Homo sapiens) [hP3]
- inhibited BxPC-3 (tumor inhibition) [2]: failed to inhibit tumor growth
